Reference: paper PMC10037499, “High-Throughput Screen Reveals the Structure–Activity Relationship of the Antimicrobial Lasso Peptide Ubonodin” (ACS Central Science, 2023)
Where a SMILES comes first, the peptide text is derived from it.

How the values were obtained:
[1] = test system: RNA polymerase (RNAP) in E. coli MC1061; assay: High-throughput growth-based screen with NGS (enrichment value) for RNA polymerase inhibition; type: cell-based; set-up: key to Experimental observation (enrichment observed in the screen): Dropout: Many variants inhibit RNAP so strongly that they cannot be detected by NGS after IPTG induction (referred to as dropout variants); conditions: Table S4; variants whose MICs were tested
Protocol: The single mutant library was analyzed by NGS at multiple stages of sample preparation (Figure 2A) to track its evolution throughout the screen. Specifically, the frequency of each possible aa variant was computed at each stage by summing up counts for each distinct translated sequence and dividing by the total number of counts for all variants (eq S1, SI Methods). Since cells expressing an RNAP-inhibiting ubonodin variant will have growth defects relative to cells with a nontoxic variant, RNAP-inhibiting ubonodin variants are expected to decrease in frequency throughout the screen.
First, the naïve library (digested PCR products) was sequenced. These digested PCR products were cloned into the pUboABC backbone and transformed into a recA^– cloning strain. This plasmid library was sequenced again to capture any changes upon transformation of the library into E. coli. The change between the naïve library and the cloning transformation library was minimal (Figure S6A). This plasmid library was transformed into the screening strain MC1061, and the plasmid from resulting colonies was also sequenced. The library in MC1061 was grown up en masse in liquid culture to mid log phase, and a portion of the culture was plated. These colonies were scraped, then the plasmid was isolated and sequenced. Finally, the liquid culture was induced with IPTG, after which a portion of the culture was plated and the plasmid was isolated and sequenced. It is key to note that all samples from liquid cultures were plated prior to sequencing to ensure that only viable cells were sequenced. […] The rationale for sequencing at these five different stages was the possibility that leaky expression of uboA would affect the frequency of active mutants prior to IPTG induction. Indeed, we observed that the frequency of some uboA mutants dropped as soon as they were transformed into the screening strain MC1061 while the frequency of other mutants climbed (Figure 2B).
The behavior of the point variants (i.e., variants with a single aa substitution) was examined by calculating their enrichment values, the base-2 logarithm of the ratio of the variant’s frequency at a specific step of the screen to the variant’s frequency in the cloning transformation library (eq S3, Figure S6). The most relevant enrichment value for ubonodin activity is the comparison between the post-IPTG library and the cloning transformation library (Figure 2A). […] Many variants inhibit RNAP so strongly that they cannot be detected by NGS after IPTG induction (referred to as dropout variants). […] Variants with a stop codon mutation and variants containing an aa substitution at Tyr9 or Tyr27 (positions conserved in MccJ25 and shown to be crucial for RNAP inhibition, see Figure S7)[26] have positive enrichment values (1.2–1.7), serving as quality control for the screen (Figure 3A). Strikingly, 63% of point variants decreased in frequency, indicating a high tolerance to aa substitution. […] The positions with active variants are Asn11 through Ser24 in the loop and Asp3, Ser5, and Ala7 in the ring.
The single mutant and double mutant libraries were transformed into E. coli MC1061. Colonies were resuspended in media and subcultured into a larger culture. Aliquots of the cultures were sampled prior to and after induction with 10 μM IPTG and 100 μM IPTG and plated. After 16 h of incubation, the colonies were resuspended in media and plasmids were miniprepped.
Samples were PCR amplified with barcoded primers and combined such that double mutant library samples were over-represented compared to single mutant library samples to provide sufficient coverage of the larger double mutant library. Samples were sequenced using an Illumina MiSeq Micro 300nt and an Illumina NovaSeq 6000 Sequencing System. Downstream analysis of the data was conducted with Python, MATLAB, and R.
V to reduce genomic DNA contamination. One fragment was amplified with Xho I For Lib and a […]

[2] = test system: B. cenocepacia AU0756
Protocol: We proceeded to test the antimicrobial activity of the selected variants against two clinical isolates of the Bcc, B. cenocepacia AU0756 and B. cenocepacia AU24362, in broth microdilution assays. […] We revisited these measurements using broth microdilution assays following the Clinical & Laboratory Standards Institute (CLSI) standard.
Broth microdilution assays of the ubonodin variants were conducted using B. cenocepacia AU0756 and B. cenocepacia AU24362 with guidelines provided by the Clinical & Laboratory Standards Institute (CLSI).

[3] = test system: E. coli MC1061; assay: Spot dilution assay of E. coli producing the ubonodin variant from pUboABC; type: cell-based; conditions: variant in pUboABC backbone in E. coli MC1061, induction with 100 μM IPTG, ten-fold serial dilutions, biological duplicates
Protocol: Cultures of E. coli MC1061 transformed with the appropriate plasmids were grown. Aliquots of the cultures were sampled prior to and after induction with 100 μM IPTG, and 10-fold serial dilutions were plated. […]
All cloning was conducted by PCR amplification (using Q5 polymerase), restriction digestion, ligation, (using T4 DNA ligase), and transformation into chemically competent E. coli XL1-Blue. All cloning with a pUboABC backbone was done by plating transformation mixt ures onto Lysogeny Broth (LB) plates supplemented with 100 μg/mL ampicillin and 0.2% w/v glucose, and colonies were inoculated into LB media supplemented with 100 μ g/mL ampicillin and 0.2% w/v glucose to suppress any leaky expression. Cloning for all other plasmid constructs was done by plating transformation mixtures onto Lysogeny Broth (LB) plates supplemented with 100 μ g/ m L ampicillin, and colonies were inoculated into LB media supplemented with 100 μ g/ m L ampicillin.
Plasmids were extracted using Qiagen QIAprep Spin Miniprep Kit and sequence verified using Sanger sequencing. All primer sequences are listed in Table S7, and all plasmid constructs are […]
pUboABC was cloned by amplifying pWC99 with pQE-80 NheI For and pAT8 Nco I Rev.
The amplicon was ligated into pWC99 digested with Nhe I and Nco I. pUboBC was cloned by digesting pUboABC with Nh e I and Nco I and ligating that fragment into pQE-80 digested with Nhe I and Nco I. pUboABC S5H I16P and pUboABCD S5H I16P were cloned with overlap PCR using pWC99 as the template. One fragment was amplified with pQE-80 EcoRI For and S5H I16P Rev v2 and the second fragment was amplified with S5H I16P For v2 and pQE-80 HindII I Rev. […]
All remaining plasmid constructs were cloned with overlap PCR. One fragment was amplified with Xho I For Lib and a mutagenic reverse primer and the second fragment was amplified with NheI Rev Lib and a mutagenic forward primer. The templates and mutagenic […]
The fragments were joined with a second round of PCR and amplified with XhoI For Lib and NheI Rev Lib. Amplicons were ligated into the appropriate plasmid backbone digested with Xho I and Nhe I-HF. The plasmid backbones […]
The appropriate plasmid was transformed into electrocompetent E. coli MC1061, plated onto LB plates supplemented with 100 μ g/ m L ampicillin and 0.2% w/v glucose, and incubated at 30 °C for 16 hours. Colonies were inoculated into LB media supplemented with 100 μ g/ m L ampicillin and 0.2% w/v glucose and grown at 37 °C for 16 hours. These cultures were sub-cultured to an OD600 of 0.02 in 50 mL of LB media supplemented with 100 μg/mL ampicillin in a 250 mL flask. Once the OD600 reached 0.3, a 1 mL aliquot was sampled immediately prior to inducing the cultures with 100 μM isopropyl β-D-1-thiogalactopyranoside (IPTG). The aliquot was washed with Phosphate-Buffered Saline (PBS) two times and ten-fold serial dilutions were spotted onto LB plates supplemented with 100 μ g/ m L ampicillin and 0.2% w/v glucose. For each following timepoint, a 1 mL sample of each culture was withdrawn, washed with PBS two times, and ten- […]
fold serial dilutions were spotted onto LB plates supplemented with 100 μ g/m L ampicillin and 0.2% w/v glucose. Plates were incubated for 16 hours at 37 °C before imaging. […]
250 mL flask. Ten-fold serial dilutions of the culture were plated onto LB plates supplemented with 100 μ g/ m L ampicillin and 0.2% w/v glucose. The cultures were then grown at 37 °C, and once the OD600 reached 0.3, a 1 mL sample of the culture was withdrawn immediately before the cultures were induced with 10 μM or 100 μM IPTG and returned to grow longer. […]
All plates were incubated at 37 °C for 16 hours, after which the number of colonies was counted. Three biological replicates of this assay were done.
Co-Culture of E. coli MC1061 pUboABC and E. coli MC1061 pUboBC pUboABC (0.9 ng) and pUboBC (0.1 ng) were transformed into electrocompetent E. coli MC1061 with a one- hour outgrowth at 37 °C in LB media supplemented with 0.2% w/v glucose. […]

Compound	Experimental observation (enrichment observed in the screen) [1]	B. cenocepacia AU0756 MIC [2]	Inhibits Growth [3]
CC[C@H](C)[C@@H]1NC(=O)[C@H](Cc2c[nH]cn2)NC(=O)CNC(=O)[C@H](CC(=O)O)NC(=O)CNC(=O)CNC(=O)CC[C@@H](C(=O)N[C@@H](Cc2ccc(O)cc2)C(=O)N[C@@H](Cc2ccccc2)C(=O)N[C@@H](CC(N)=O)C(=O)N[C@@H](CCCNC(=N)N)C(=O)N2CCC[C@H]2C(=O)N[C@@H](CCSC)C(=O)N[C@@H](Cc2c[nH]cn2)C(=O)N2CCC[C@H]2C(=O)N[C@@H](Cc2c[nH]cn2)C(=O)N[C@@H](CC(=O)O)C(=O)N[C@@H](Cc2c[nH]c3ccccc23)C(=O)N[C@@H](CCC(N)=O)C(=O)N[C@H](C(=O)N[C@@H](CCSC)C(=O)N[C@@H](CC(=O)O)C(=O)N[C@@H](CO)C(=O)NCC(=O)N[C@@H](Cc2ccc(O)cc2)C(=O)N[C@@H](Cc2ccc(O)cc2)C(=O)NCC(=O)O)[C@@H](C)CC)NC(=O)[C@H](C)NC1=O [S5H I16P] (HELM PEPTIDE1{G.G.D.G.H.I.A.E.Y.F.N.R.P.M.H.P.H.D.W.Q.I.M.D.S.G.Y.Y.G}$PEPTIDE1,PEPTIDE1,1:R1-8:R3$$$V2.0)	Dropout	8 µM	Yes
CC[C@H](C)[C@@H]1NC(=O)[C@H](CO)NC(=O)CNC(=O)[C@H](CC(=O)O)NC(=O)CNC(=O)CNC(=O)CC[C@@H](C(=O)N[C@@H](Cc2ccc(O)cc2)C(=O)N[C@@H](Cc2ccccc2)C(=O)N[C@@H](CC(N)=O)C(=O)N[C@@H](Cc2ccccc2)C(=O)N2CCC[C@H]2C(=O)N[C@@H](CCSC)C(=O)N[C@@H](Cc2c[nH]cn2)C(=O)N[C@H](C(=O)N[C@@H](Cc2c[nH]cn2)C(=O)N[C@@H](CC(=O)O)C(=O)N[C@@H](Cc2c[nH]c3ccccc23)C(=O)N[C@@H](CCC(N)=O)C(=O)N[C@H](C(=O)N[C@@H](CCSC)C(=O)N[C@@H](CC(=O)O)C(=O)N[C@@H](CO)C(=O)NCC(=O)N[C@@H](Cc2ccc(O)cc2)C(=O)N[C@@H](Cc2ccc(O)cc2)C(=O)NCC(=O)O)[C@@H](C)CC)[C@@H](C)CC)NC(=O)[C@H](C)NC1=O [R12F] (HELM PEPTIDE1{G.G.D.G.S.I.A.E.Y.F.N.F.P.M.H.I.H.D.W.Q.I.M.D.S.G.Y.Y.G}$PEPTIDE1,PEPTIDE1,1:R1-8:R3$$$V2.0)	-5.3	2 µM	Yes
CC[C@H](C)[C@@H]1NC(=O)[C@H](CO)NC(=O)CNC(=O)[C@H](CC(=O)O)NC(=O)CNC(=O)CNC(=O)CC[C@@H](C(=O)N[C@@H](Cc2ccc(O)cc2)C(=O)N[C@@H](Cc2ccccc2)C(=O)N[C@@H](CC(N)=O)C(=O)N[C@@H](CCCNC(=N)N)C(=O)N2CCC[C@H]2C(=O)N[C@@H](CCSC)C(=O)N[C@@H](Cc2c[nH]cn2)C(=O)N[C@@H](CC(=O)O)C(=O)N[C@@H](Cc2c[nH]cn2)C(=O)N[C@@H](CC(=O)O)C(=O)N[C@@H](Cc2c[nH]c3ccccc23)C(=O)N[C@@H](CCC(N)=O)C(=O)N[C@H](C(=O)N[C@@H](CCSC)C(=O)N[C@@H](CC(=O)O)C(=O)N[C@@H](CO)C(=O)NCC(=O)N[C@@H](Cc2ccc(O)cc2)C(=O)N[C@@H](Cc2ccc(O)cc2)C(=O)NCC(=O)O)[C@@H](C)CC)NC(=O)[C@H](C)NC1=O [I16D] (HELM PEPTIDE1{G.G.D.G.S.I.A.E.Y.F.N.R.P.M.H.D.H.D.W.Q.I.M.D.S.G.Y.Y.G}$PEPTIDE1,PEPTIDE1,1:R1-8:R3$$$V2.0)	-6.2	0.5 to 2 µM	Yes
CC[C@H](C)[C@@H]1NC(=O)[C@H](CO)NC(=O)CNC(=O)[C@H](CC(=O)O)NC(=O)CNC(=O)CNC(=O)CC[C@@H](C(=O)N[C@@H](Cc2ccc(O)cc2)C(=O)N[C@@H](Cc2ccccc2)C(=O)N[C@@H](CC(N)=O)C(=O)N[C@@H](Cc2ccccc2)C(=O)N2CCC[C@H]2C(=O)N[C@@H](CCSC)C(=O)N[C@@H](Cc2c[nH]cn2)C(=O)N[C@H](C(=O)N[C@@H](Cc2c[nH]cn2)C(=O)N[C@@H](CC(=O)O)C(=O)NCC(=O)N[C@@H](CCC(N)=O)C(=O)N[C@H](C(=O)N[C@@H](CCSC)C(=O)N[C@@H](CC(=O)O)C(=O)N[C@@H](CO)C(=O)NCC(=O)N[C@@H](Cc2ccc(O)cc2)C(=O)N[C@@H](Cc2ccc(O)cc2)C(=O)NCC(=O)O)[C@@H](C)CC)[C@@H](C)CC)NC(=O)[C@H](C)NC1=O [R12F W19G] (HELM PEPTIDE1{G.G.D.G.S.I.A.E.Y.F.N.F.P.M.H.I.H.D.G.Q.I.M.D.S.G.Y.Y.G}$PEPTIDE1,PEPTIDE1,1:R1-8:R3$$$V2.0)	Dropout	>8 µM	Yes
